What was measured:
[1] = system: Mediterranean fruit flies; assay: Field cage bioassay: attraction of male Mediterranean fruit flies to Jackson traps baited with PVC plugs; assay type: in vivo, Ceratitis capitata; settings: grand mean capture ± 2 pooled standard deviations; ~100 mg PVC plug with ~40% compound in Jackson trap; screened field cage, 24-hour period; 150 male flies released per cage; same letter = not significantly different (P >0.05)
Procedure: Assessment of Biological Properties: Compounds were assessed for the ability to attract Mediterranean fruit flies in an enclosed field cage.
Formulation of compounds on PVC disks: All test compounds were >95% pure by GC-MS, except for (1R*,2R*,5R*)-sec-butyl 5-methoxy-2-methylcyclohexanecarboxylate which was tested as a mixture of diastereomers due to the use of (±)-2-butanol in the formation of the ester, and were formulated as ˜100 mg polymeric plugs containing ˜40% by mass of a compound of Formula (I). A typical protocol dissolved polyvinyl chloride (PVC) (864 mg), dibutyl phthalate (DBP) (432 mg), dioctyl phthalate (DOP) (432 mg), (1R*,2R*,5R*)-ethyl 5-methoxy-2-methylcyclohexanecarboxylate (1) (1.152 g) in THF (8.64 g). The mixture was then pipetted (˜400 mg) into respective porcelain wells. The THF was allowed to evaporate by warming the porcelain plate at 40° C. for 15 minutes, and then standing at room temperature until a constant weigh was achieved, to afford ˜26 PVC-attractant disks with a mass of 104.0±3.4 mg, (x±s).
Bioassays: Compounds were evaluated in screened field cages (3×3×2.5 meters) over a 24-hour period. Each field cage housed a single carousel, centered on the ceiling about 2 meters above the floor of the enclosure, which rotated (˜1 revolution/min) 8 equally-spaced Jackson traps. A polymeric plug containing a test compound was placed in a small basket in each Jackson trap with a sticky insert to record the number of fly catches. Test compounds (6) were screened together with two “standard” attractants, TML (FarmaTech, USA) and (±)-CER-B1 (prepared according to Khrimian, A., et al., Tetrahedron, 59: 5475 (2003)). A typical experiment (1) used 3 cages and began between 9-10 am each day, (2) TML and (±)-CER-B were arranged at two directly opposing poles of the carousel with 6 test compounds (3 on each side of TML and (±)-CER-B1) randomly placed relative to the standards, (3) 6 randomly-selected patterns were tested over a 2-day period, with the same sequence of patterns repeated three times (days 1 & 2, days 3 & 4, and days 5 & 6) for a total of 3 replicates, (4) each 2-day period (days 1 & 2, days 3 & 4, and days 5 & 6) used a different cohort of 7-8 day old laboratory reared male Mediterranean fruit flies (n=3), and (5) 150 male Mediterranean fruit flies were released each morning per 24-h cage bioassay for a total of 900 flies per cohort and 2700 flies during the entire testing period. A fresh lure was used for each cage experiment (n=18). Mean fly catch numbers are depicted in the table below.
For each cohort, a single-factor ANOVAs was applied to test the null hypothesis that the mean capture of a particular lure across both days (six trials total, three each day) could be used to estimate attraction. […] An additional single-factor ANOVAs was applied to test the null hypothesis that the grand mean capture of a particular lure could be used to estimate attraction, independent of the cohort. Again, none of the lure-respective ANOVAs were significant, a result that provided evidence to support congruence in the biological response across all cages, days, and cohorts. Also depicted in the table below, the grand mean capture ±2 pooled standard deviations (2 spooled) (Skoog, D. and Leary, J., Principles of Instrumental Analysis, John Wiley & Sons, Eds: New York, 1992). In general, the most attractive compounds in the above bioassay captured a similar (statistically equivalent) or greater number of flies relative to trimedlure.

[2] = DeMilo 1992; cited from earlier work
male medfly = settings: classification in the literature; cited from earlier work

Compound | Mean Catch per replicate [1] | stability in formulations and the environment [2] | attractant strength for male medfly (male medfly)
CO[C@@H]1CC[C@@H](C)[C@H](C(=O)OCC(F)(F)F)C1 (relative stereo) [(1R*,2R*,5R*)-2,2,2-trifluoroethyl 5-methoxy-2-methylcyclohexanecarboxylate] | 94.0 ± 11.5 days |  | 
CCOC(=O)[C@@H]1C[C@H](OC)CC[C@H]1C (relative stereo) [(1R*,2R*,5R*)-ethyl 5-methoxy-2-methylcyclohexanecarboxylate] | 91.0 ± 9.8 days |  | 
CO[C@@H]1CC[C@@H](C)[C@H](C(=O)OC(C)C)C1 (relative stereo) [(1R*,2R*,5R*)-isopropyl 5-methoxy-2-methylcyclohexanecarboxylate] | 64.7 ± 10.2a |  | 
CCCOC(=O)[C@@H]1C[C@H](OC)CC[C@H]1C (relative stereo) [(1R*,2R*,5R*)-propyl 5-methoxy-2-methylcyclohexanecarboxylate] | 38.0 ± 9.7b |  | 
CCC(C)OC(=O)[C@@H]1C[C@H](OC)CC[C@H]1C (relative stereo) [(1R*,2R*,5R*)-sec-butyl 5-methoxy-2-methylcyclohexanecarboxylate] | 13.7 ± 3.0c |  | 
CO[C@@H]1CC[C@@H](C)[C@H](C(=O)OC(C)(C)C)C1 (relative stereo) [(1R*,2R*,5R*)-tert-butyl 5-methoxy-2-methylcyclohexanecarboxylate] | 9.0 ± 2.8c |  | 
CCOC(=O)[C@@H]1C[C@H](I)CC[C@H]1C (relative stereo) [Ceralure-B1, (1R*,2R*,5R*)-ethyl 5-iodo-2-methylcyclohexanecarboxylate, reference compound] | 94.0 ± 10.7 days |  | 
ethyl esters of 4 (and 5)-iodo-2-methylcyclohexane-1-carboxylate [CER] |  | unstable | 
tert-butyl 4- (and 5)-chloro-2-methylcyclohexanecarboxylate [Trimedlure, reference compound] | 82.7 ± 11.3 days |  | weak attractant

From patent US10343974B1, “Cyclohexanol ethers as mediterranean fruit fly attractants” (The United States of America, as Represented by the …, priority 2018, dated 2019)
